3 compounds from publication PMC8342458, “GluN2A and GluN2B NMDA receptors use distinct allosteric routes” (Nature Communications, 2021) can be followed below.

Values joined by “and” are separate entries in the source; they are usually repeats but may differ in a detail not shown here. Equal values may be shown once. Read-outs that look alike come from different tables or passages of the source.

In test [1] the target is T1, wild-type (wt) GluN1/GluN2B receptors (UniProt P35439+Q01097).
T1 construct: For full-length multimeric membrane-embedded receptors studied in cellulo, as done in the present work; expressed in transfected cells; host or cells: Xenopus laevis oocytes (nuclear cDNA injection, pcDNA3 plasmids)
Put plainly: TEVC recordings in Xenopus oocytes, allosteric modulator sensitivity. It counts as cell-based, rat (GluN1), mouse (GluN2B). The procedure: (§1) The pcDNA3-based expression plasmids for rat GluN1-1a (named GluN1 herein), rat GluN2A, and mouse GluN2B (also known as ε2) subunits, Pfu-based site-directed mutagenesis strategy, and sequencing procedure have been described previously[68],[69]. Incorporation of the unnatural amino acids (UAAs) AzF and BzF into NMDARs was performed using the genetic code expansion methodology as previously described[52],[53],[83]. The plasmid pSVB.Yam carrying the gene encoding the amber suppressor tRNA derived from B. stearothermophilus Tyr-tRNACUA, while the aminoacyl-tRNA synthetases (aaRS) construction for AzF and BzF derived from E. coli TyrRS[84],[85].
(§2) Recombinant NMDARs were expressed in Xenopus laevis oocytes after nuclear injection of 36 nl of a mixture of cDNAs (at 10–30 ng/μl) encoding various GluN1 and GluN2 subunits (ratio 1:1). Oocytes were prepared, injected, incubated, and voltage-clamped as described previously. For UAA incorporation, oocytes were co-injected with 36 nl of a cDNA mixture encoding for of GluN1, GluN2, Yam, and aaRS as follows, unless otherwise indicated in the text: GluN1-K178amber (120 ng/μl), GluN2A (80 ng/µl) or GluN2B (120 ng/μl), Yam (10 ng/μl), AzF-RS (5 ng/μl). After injection, oocytes were incubated at 19 °C in a Barth solution containing (in mM) 88 NaCl, 1 KCl, 0.33 Ca(NO3)2, 0.41 CaCl2, 0.82 MgSO4, 2.4 NaHCO3, 10 HEPES (pH adjusted to 7.6 with NaOH) supplemented with gentamicin ([…]) and the NMDAR glutamate binding site competitive antagonist D-APV (50 μM). AzF and BzF were added to the incubation medium at final concentrations of 1 mM and 2 mM, respectively.
(§3) For all experiments, except those on pH and spermine sensitivity, the standard external solution contained (in mM): 100 NaCl, 0.3 BaCl2, and 5 HEPES (pH adjusted to 7.3 with KOH). […] For the pH and spermine sensitivity experiments, an external solution enriched in HEPES was used to insure proper pH buffering. Unless otherwise mentioned, NMDAR-mediated currents were induced by simultaneously applications of saturating concentrations of glutamate and glycine (100 μM each). Glutamate and glycine dose-response curves (DRC) were performed in the presence of 100 µM glycine and 100 µM glutamate, respectively. Recordings were performed at a holding potential of −60 mV and at room temperature. Data were collected and analyzed using Clampex 10.5 and Clampfit 10.5 (Molecular Devices), respectively, and fitted using KaleidaGraph 4.0 (Synergy software).
(§4) EC50 and nH were fitted as free parameters. […] For proton DRC, corrections for small shifts in the reference potential of bath electrodes and analysis of the data were performed as previously described. Spermine experiments were performed and analyzed as previously described. In brief, spermine sensitivity was assessed at pH 6.5 and at a holding potential of −30 mV to maximize the spermine induced potentiation. […] EC50, a and nH were set as free parameters. MK-801 is an NMDAR open channel blocker with slow reversibility and, consequently, the rate at which MK-801 inhibits NMDAR responses depends on the level of channel activity, that is, channel open probability (Po). Based on this principle, MK-801 is classically used to estimate the level of NMDAR channel activity in macroscopic whole-cell recordings[36],[47],[56],[86],[87]. Note, however, that MK- 801 inhibition kinetics can index relative, not absolute, Po. MK-801 solutions (10 nM for GluN2A-containing receptors and 50 nM for GluN2B-containing receptors) were prepared by dilution of a stock solution (50 mM) into the agonist containing solutions. MK-801 time constants of inhibition (τon) were obtained by fitting currents with a single-exponential component to a time window corresponding to 10–90% of maximum inhibition. On-rate (kon) constants were then calculated assuming a pseudo first-order reaction scheme: kon = 1 / ([MK-801]*τon).

The target of test [2] is T2, GluN1-N512C-L777C/GluN2B-E517C-L781C receptors (UniProt P35439+Q01097, E517C/L777C/L781C/N521C).
T2 construct: For full-length multimeric membrane-embedded receptors studied in cellulo, as done in the present work; expressed in transfected cells; host or cells: Xenopus laevis oocytes
Put plainly: TEVC recordings in Xenopus oocytes, zinc and ifenprodil inhibition dose-response. The class given is cell-based, rat (GluN1), mouse (GluN2B). On the procedure: as §1, §2, §3, §4

Test [3] deals with T3, GluN1/GluN2B-N218C receptors (UniProt P35439+Q01097, N218C).
T3 construct: For full-length multimeric membrane-embedded receptors studied in cellulo, as done in the present work; expressed in transfected cells; host or cells: Xenopus laevis oocytes
The test is described as above. The class given is cell-based, rat (GluN1), mouse (GluN2B). On the procedure: as §1, §2, §3, §4

Test [4] has as its target T4, GluN1-K178AzF/GluN2B receptors (UniProt P35439+Q01097, K178F).
T4 construct: For full-length multimeric membrane-embedded receptors studied in cellulo, as done in the present work; expressed in transfected cells; host or cells: Xenopus laevis oocytes, co-injected with amber suppressor tRNA (Yam) and AzF-RS
Put plainly: TEVC recordings in Xenopus oocytes, modulator sensitivity before and after UV photocrosslinking. The class given is cell-based, rat (GluN1), mouse (GluN2B). Conditions: for Isper/Io 20 μM: 20 μM spermine; for Isper/Io 20 μM / Isper/Io 200 μM / Isper/Io 1000 μM / spermine maximal potentiation / spermine nH / EC50: pH 6.5, -30 mV; for Isper/Io 200 μM: 200 μM spermine; for Isper/Io 1000 μM: 1000 μM spermine; for EC50: read-out: spermine EC50. On the procedure:
as §1, §2, §3, §4

Test [5] deals with T5, GluN1-K178AzF/GluN2A receptors (Rattus norvegicus, UniProt P35439+Q00959, K178F).
T5 construct: For full-length multimeric membrane-embedded receptors studied in cellulo, as done in the present work; expressed in transfected cells; host or cells: Xenopus laevis oocytes, co-injected with amber suppressor tRNA (Yam) and AzF-RS
Described as above. The class given is cell-based. On the procedure:
as §1, §2, §3, §4

Where [6] appears, read: pH 6.5, holding potential -30 mV.
Where [7] appears, read: pH 8.3 (second column so headed), +UV.

T5 sequence (Q00959 23-1464, other chains not shown): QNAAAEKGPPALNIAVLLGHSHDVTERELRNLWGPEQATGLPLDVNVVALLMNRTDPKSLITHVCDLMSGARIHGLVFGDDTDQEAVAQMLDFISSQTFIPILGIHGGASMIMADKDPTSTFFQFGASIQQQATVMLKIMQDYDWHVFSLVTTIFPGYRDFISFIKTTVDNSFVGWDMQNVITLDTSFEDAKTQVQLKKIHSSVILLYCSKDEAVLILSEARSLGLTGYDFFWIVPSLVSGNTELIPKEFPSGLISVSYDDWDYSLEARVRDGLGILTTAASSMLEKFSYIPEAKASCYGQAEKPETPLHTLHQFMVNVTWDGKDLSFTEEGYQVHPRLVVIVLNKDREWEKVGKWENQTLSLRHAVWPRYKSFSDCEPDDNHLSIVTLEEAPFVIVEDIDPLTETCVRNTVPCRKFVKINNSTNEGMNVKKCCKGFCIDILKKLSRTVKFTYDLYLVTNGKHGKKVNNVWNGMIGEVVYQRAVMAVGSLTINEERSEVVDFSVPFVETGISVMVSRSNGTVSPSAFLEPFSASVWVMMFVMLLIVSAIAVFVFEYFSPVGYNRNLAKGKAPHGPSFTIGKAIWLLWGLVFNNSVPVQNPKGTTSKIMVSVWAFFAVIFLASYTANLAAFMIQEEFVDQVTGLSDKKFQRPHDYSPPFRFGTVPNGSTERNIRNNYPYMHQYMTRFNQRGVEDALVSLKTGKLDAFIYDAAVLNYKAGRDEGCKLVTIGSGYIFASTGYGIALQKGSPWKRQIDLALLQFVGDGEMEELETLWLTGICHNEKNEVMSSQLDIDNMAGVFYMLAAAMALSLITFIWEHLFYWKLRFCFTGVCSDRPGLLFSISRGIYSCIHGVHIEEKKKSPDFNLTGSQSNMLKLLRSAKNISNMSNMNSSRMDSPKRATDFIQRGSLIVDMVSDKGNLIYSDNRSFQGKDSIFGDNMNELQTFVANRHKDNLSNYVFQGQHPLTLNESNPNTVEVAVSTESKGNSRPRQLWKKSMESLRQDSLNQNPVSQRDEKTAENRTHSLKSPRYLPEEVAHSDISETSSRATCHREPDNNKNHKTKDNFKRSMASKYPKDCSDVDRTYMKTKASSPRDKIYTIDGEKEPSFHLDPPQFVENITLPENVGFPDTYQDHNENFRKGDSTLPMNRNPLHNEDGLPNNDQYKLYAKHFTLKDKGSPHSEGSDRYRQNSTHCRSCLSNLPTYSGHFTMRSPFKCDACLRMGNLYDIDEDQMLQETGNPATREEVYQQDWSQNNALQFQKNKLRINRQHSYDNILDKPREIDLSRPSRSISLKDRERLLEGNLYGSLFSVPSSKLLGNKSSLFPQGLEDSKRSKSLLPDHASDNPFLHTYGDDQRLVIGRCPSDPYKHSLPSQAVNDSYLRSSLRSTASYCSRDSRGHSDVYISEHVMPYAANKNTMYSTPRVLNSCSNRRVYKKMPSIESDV
T4 sequence (Q01097 27-1482, other chains not shown): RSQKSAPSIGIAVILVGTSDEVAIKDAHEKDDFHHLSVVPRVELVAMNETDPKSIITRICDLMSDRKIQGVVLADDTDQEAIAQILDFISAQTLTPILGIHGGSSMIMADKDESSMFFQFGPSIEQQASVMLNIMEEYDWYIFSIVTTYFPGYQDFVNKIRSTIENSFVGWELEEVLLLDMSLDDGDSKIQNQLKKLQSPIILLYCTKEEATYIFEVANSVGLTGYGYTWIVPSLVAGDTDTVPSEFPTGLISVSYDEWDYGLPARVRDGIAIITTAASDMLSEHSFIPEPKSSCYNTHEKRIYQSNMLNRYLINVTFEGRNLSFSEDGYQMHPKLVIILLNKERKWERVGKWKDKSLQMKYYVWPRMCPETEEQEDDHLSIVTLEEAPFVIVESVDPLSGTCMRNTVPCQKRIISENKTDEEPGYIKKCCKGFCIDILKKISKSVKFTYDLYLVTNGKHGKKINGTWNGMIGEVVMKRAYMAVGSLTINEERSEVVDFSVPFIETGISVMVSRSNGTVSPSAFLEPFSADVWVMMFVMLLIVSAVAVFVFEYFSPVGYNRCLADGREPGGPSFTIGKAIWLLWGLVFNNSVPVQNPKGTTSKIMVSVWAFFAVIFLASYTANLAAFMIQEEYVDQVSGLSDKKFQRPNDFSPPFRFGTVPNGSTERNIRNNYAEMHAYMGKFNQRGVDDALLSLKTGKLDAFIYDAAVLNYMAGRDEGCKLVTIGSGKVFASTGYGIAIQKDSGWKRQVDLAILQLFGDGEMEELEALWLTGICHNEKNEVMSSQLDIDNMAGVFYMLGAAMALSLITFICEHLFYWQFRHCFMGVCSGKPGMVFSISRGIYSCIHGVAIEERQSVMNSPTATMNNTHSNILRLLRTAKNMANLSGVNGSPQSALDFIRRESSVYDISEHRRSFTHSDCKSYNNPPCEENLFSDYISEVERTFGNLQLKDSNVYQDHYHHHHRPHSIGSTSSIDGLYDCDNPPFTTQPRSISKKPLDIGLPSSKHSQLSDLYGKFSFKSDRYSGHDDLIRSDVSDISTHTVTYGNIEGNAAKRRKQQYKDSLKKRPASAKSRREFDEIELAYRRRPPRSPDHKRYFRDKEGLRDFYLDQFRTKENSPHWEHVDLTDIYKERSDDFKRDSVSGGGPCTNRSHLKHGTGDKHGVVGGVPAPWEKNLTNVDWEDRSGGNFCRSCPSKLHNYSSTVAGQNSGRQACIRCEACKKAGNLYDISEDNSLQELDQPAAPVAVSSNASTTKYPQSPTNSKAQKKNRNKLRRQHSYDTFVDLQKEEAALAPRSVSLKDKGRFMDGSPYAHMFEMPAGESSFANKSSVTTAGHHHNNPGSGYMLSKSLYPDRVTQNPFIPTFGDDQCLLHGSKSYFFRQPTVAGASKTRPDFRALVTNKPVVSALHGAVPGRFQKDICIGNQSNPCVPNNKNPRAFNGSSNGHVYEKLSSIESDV
T1 sequence (Q01097 27-1482, other chains not shown): as above

Take `CC(C(O)c1ccc(O)cc1)N1CCC(Cc2ccccc2)CC1` (centres unmarked) [ifenprodil, Ifenprodil]: the “ifenprodil Hill slope (nH)” value was 1.22 ± 0.04 and 1.14 ± 0.11 and 1.11 ± 0.07 in test [1]; 0.83 ± 0.13 in test [2]; 1.08 ± 0.06 in test [3]; 1.25 ± 0.11 in test [4] (after UV); 1.25 ± 0.39 in test [4] (before UV). Moreover, the ifenprodil maximal inhibition was 0.95 ± 0.02 and 0.93 ± 0.01 in test [1]; 0.76 ± 0.03 in test [2]; 0.99 ± 0.02 in test [3]; 0.54 ± 0.06 in test [4] (after UV); 0.98 ± 0.09 in test [4] (before UV).
Usually EC50 stands for the concentration at which the effect is half-maximal. Consider `NCCCNCCCCNCCCN` [spermine], for which the “Isper/Io 20 μM” value in test [1] (20 μM spermine, pH 6.5, -30 mV) is 1.74 ± 0.06; in test [4] (+UV) it was 1.24 ± 0.03; in test [4] (-UV), 2.11 ± 0.15. Besides, the “Isper/Io 200 μM” value was determined as 6.89 ± 0.52 in test [1] (200 μM spermine, pH 6.5, -30 mV); 2.12 ± 0.26 in test [4] (+UV); 13.65 ± 1.01 in test [4] (-UV). For the same compound, the “Isper/Io 1000 μM” value amounted to 12.55 ± 0.41 in test [1] (1000 μM spermine, pH 6.5, -30 mV); 2.49 ± 0.42 in test [4] (+UV); 23.05 ± 1.52 in test [4] (-UV). Moreover, the spermine maximal potentiation is reported as 11.2 ± 3.3 in test [1] (setting [6]), 1.6 ± 0.5 in test [4] (after UV) and 26.1 ± 2.5 in test [4] (before UV). Also, the results for the “spermine nH” value in test [1] (setting [6]), in test [4] (after UV) and in test [4] (before UV) were 1.26 ± 0.09, 1.14 ± 0.16 and 1.29 ± 0.22, respectively. The EC50 in test [1] (pH 6.5, holding potential -30 mV, read-out: spermine EC50) turned out to be 174 ± 64.5 µM; in test [4] (after UV) it was 93 ± 22.8 µM; in test [4] (before UV), 215 ± 63.2 µM.
In the case of `[1H+]` [proton], the “pHIC50 (proton sensitivity)” value is on record as 6.90 ± 0.02 in test [4] (after UV), 7.60 ± 0.01 in test [4] (before UV), 7.01 ± 0.01 in test [5] (after UV) and 7.00 ± 0.02 in test [5] (before UV). The “proton Hill slope (nH)” value amounted to 0.99 ± 0.03 in test [4] (after UV), 1.37 ± 0.05 in test [4] (before UV), 1.93 ± 0.07 in test [5] (after UV) and 1.91 ± 0.11 in test [5] (before UV). Further, the “proton, relative current at pH 6.3” value in test [4] (pH 6.3, +UV) was 0.21 ± 0.09; in test [4] (pH 6.3, -UV), 0.03 ± 0.02; in test [5] (pH 6.3, +UV), 0.04 ± 0.01; in test [5] (pH 6.3, -UV) it was 0.04 ± 0.01. Also, the “proton, relative current at pH 7.3” value in test [4] (pH 7.3, +UV) turned out to be 0.71 ± 0.02; in test [4] (pH 7.3, -UV), 0.28 ± 0.04; in test [5] (pH 7.3, +UV), 0.78 ± 0.03; in test [5] (pH 7.3, -UV) it was 0.79 ± 0.03. The “proton, relative current at pH 8.3” value in test [4] (setting [7]) was 0.98 ± 0.01; in test [4] (pH 8.3 (second column so headed), -UV), 1.00 ± 0.03; in test [4] (pH 8.3, +UV), 0.97 ± 0.03; in test [4] (pH 8.3, -UV), 0.90 ± 0.04; in test [5] (setting [7]), 1.00 ± 0.02; in test [5] (pH 8.3, +UV) it was 0.99 ± 0.02. For the same compound, the “proton, relative current at pH 8.3” value in test [5] (pH 8.3, -UV) was 0.99 ± 0.02. The “rightward shift in the pH dose-response curve” value in test [4] (post-UV vs pre-UV) is greater than 0.5 pH-unit. The “proton, relative current at pH 9.3” value in test [5] (pH 9.3, -UV) amounted to 1.01 ± 0.04.
